According to US11253499B2, “Compounds” (priority 2017, dated 2022):
pEC50, pIC50: −log10 of the molar value. Like-named read-outs stand apart in the source and are kept apart here.

Tests used:
[1] = system: M. tuberculosis H37Rv-GFP; format: cell-based, Mycobacterium tuberculosis; details: read-out: EC50_H37Rv
[2] = system: Mycobacterium tuberculosis H37Rv in human macrophages THP-1
Experimental: Mycobacterium tuberculosis In Vitro H37Rv in Human Macrophaqes THP-1 Inhibition Assay (Intracellular Assay)
Procedure was carried out as described in Sorrentino, F. et al. (2016) Antimicrob. Agents Chemother. 60 (1), 640-645 (supplemental material), except that before THP-1 infected cells were seeded in 384 well plates, infected macrophages were filtered in the last step of wash steps with a 40 um cell strainer to remove cell clumps and obtain single cell suspension.
The compounds of the examples were tested essentially in accordance with the above-mentioned assay (without the presence of ethionamide).

[3] = potentiation of ethionamide, ETH 0.1 μg/ml, […], 5 days at 37° C., […]

| Structure (SMILES) | pEC50 [1, 3] | pEC50 [1] | pIC50 [2] |
| --- | --- | --- | --- |
| O=C(CCC(F)(F)F)N1CC(c2ccc(OCC(F)(F)F)nc2)C1 [Example 37, 4,4,4-trifluoro-1-[3-[6-(2,2,2-trifluoroethoxy)-3-pyridyl]azetidin-1-yl]butan-1-one] | 6.30 to 6.60 | – | – |
| O=C(CCC(F)(F)F)N1CC(c2cc(F)c(F)c(F)c2)C1 [Example 34, 4,4,4-trifluoro-1-[3-(3,4,5-trifluorophenyl)azetidin-1-yl]butan-1-one] | – | > 7.30 | 6.60 to 7.30 |
| CC(C)Oc1ccc(C2CN(C(=O)CCC(F)(F)F)C2)cn1 [Example 36, 4,4,4-trifluoro-1-[3-(6-isopropoxy-3-pyridyl)azetidin-1-yl]butan-1-one] | 6.60 to 7.30 | – | – |
| O=C(CCC(F)(F)F)N1CC(c2ccc(F)cc2C(F)(F)F)C1 [Example 25, 4,4,4-trifluoro-1-[3-[4-fluoro-2-(trifluoromethyl)phenyl]azetidin-1-yl]butan-1-one] | – | 6.60 to 7.30 | 6.60 to 7.30 |
| O=C(CCC(F)(F)F)N1CC(c2cccc(Cl)c2)C1 [Example 17, 1-[3-(3-chlorophenyl)azetidin-1-yl]-4,4,4-trifluoro-butan-1-one] | – | > 7.30 | > 7.30 |
| O=C(CCC(F)(F)F)N1CC(N2CCCCC2)C1 [Example 39, 4,4,4-trifluoro-1-(3-(piperidin-1-yl)azetidin-1-yl)butan-1-one] | 5.00 to 6.00 | – | – |
| O=C(CCC(F)(F)F)N1CC(c2ccc(F)cc2F)C1 [Example 18, 1-[3-(2,4-difluorophenyl)azetidin-1-yl]-4,4,4-trifluoro-butan-1-one] | – | > 7.30 | > 7.30 |
| COC1(c2ccc(F)cc2)CN(C(=O)CCC(F)(F)F)C1 [Example 41, 4,4,4-trifluoro-1-(3-(4-fluorophenyl)-3-methoxyazetidin-1-yl)butan-1-one] | – | > 7.30 | > 7.30 |
| O=C(CCC(F)(F)F)N1CC(c2cncc(C(F)(F)F)c2)C1 [Example 24, 4,4,4-trifluoro-1-[3-[5-(trifluoromethyl)-3-pyridyl]azetidin-1-yl]butan-1-one] | 5.00 to 6.00 | – | – |
| O=C(CCC(F)(F)F)N1CC(c2cccnc2)C1 [Example 26, 4,4,4-trifluoro-1-[3-(3-pyridyl)azetidin-1-yl]butan-1-one] | – | 5.00 to 6.00 | 5.00 to 6.00 |
| O=C(CCC(F)(F)F)N1CC(c2ccc(C(F)(F)F)cn2)C1 [Example 8, 4,4,4-trifluoro-1-[3-[5-(trifluoromethyl)-2-pyridyl]azetidin-1-yl]butan-1-one] | – | 6.30 to 6.60 | 5.00 to 6.00 |
| O=C(CCC(F)(F)F)N1CC(c2ccc(Cl)cc2)C1 [Example 13, 1-[3-(4-chlorophenyl)azetidin-1-yl]-4,4,4-trifluoro-butan-1-one] | – | > 7.30 | 6.60 to 7.30 |
| O=C(CCC(F)(F)F)N1CC(c2ccc(OC(F)(F)F)cc2)C1 [Example 14, 4,4,4-trifluoro-1-[3-[4-(trifluoromethoxy)phenyl]azetidin-1-yl]butan-1-one] | – | > 7.30 | 6.30 to 6.60 |
| O=C(CCC(F)(F)F)N1CC(c2ncc(F)cc2F)C1 [Example 10, 1-[3-(3,5-difluoro-2-pyridyl)azetidin-1-yl]-4,4,4-trifluoro-butan-1-one] | > 7.30 | – | – |
| O=C(CCC(F)(F)F)N1CC(c2cc(Cl)ccn2)C1 [Example 11, 1-[3-(4-chloro-2-pyridyl)azetidin-1-yl]-4,4,4-trifluoro-butan-1-one] | – | 6.60 to 7.30 | 6.60 to 7.30 |
| O=C(CCC(F)(F)F)N1CC(c2ccc(F)cc2Cl)C1 [Example 20, 1-[3-(2-chloro-4-fluoro-phenyl)azetidin-1-yl]-4,4,4-trifluoro-butan-1-one] | – | 6.60 to 7.30 | 6.60 to 7.30 |
| O=C(CCC(F)(F)F)N1CC(F)(c2ccc(F)cc2)C1 [Example 44, 4,4,4-trifluoro-1-(3-fluoro-3-(4-fluorophenyl)azetidin-1-yl)butan-1-one] | > 7.30 | – | – |
| O=C(CCC(F)(F)F)N1CC(N2CCC(F)(F)CC2)C1 [Example 35, 1-[3-(4,4-difluoro-1-piperidyl)azetidin-1-yl]-4,4,4-trifluoro-butan-1-one] | 6.00 to 6.30 | – | – |
| O=C(CCC(F)(F)F)N1CC(c2ccc(C(F)(F)F)cc2)C1 [Example 16] | – | 6.60 to 7.30 | 6.30 to 6.60 |
| O=C(CCC(F)(F)F)N1CC(C2CCCC2)C1 [Example 5, 1-(3-cyclopentylazetidin-1-yl)-4,4,4-trifluoro-butan-1-one] | > 7.30 | – | – |
| O=C(CCC(F)(F)F)N1CC(C2CCC(F)(F)CC2)C1 [Example 40, 1-(3-(4,4-difluorocyclohexyl)azetidin-1-yl)-4,4,4-trifluorobutan-1-one] | 6.60 to 7.30 | – | – |
| COc1ccc(C2CN(C(=O)CCC(F)(F)F)C2)cn1 [Example 22, 4,4,4-trifluoro-1-[3-(6-methoxy-3-pyridyl)azetidin-1-yl]butan-1-one] | > 7.30 | – | – |

| Structure (SMILES) | pEC50 [1, 3] | pEC50 [1] | pIC50 [2] |
| --- | --- | --- | --- |
| O=C(CCC(F)(F)F)N1CC(c2ccnc(F)c2)C1 [Example 31, 4,4,4-trifluoro-1-[3-(2-fluoro-4-pyridyl)azetidin-1-yl]butan-1-one] | 6.00 to 6.30 | – | – |
| O=C(CCC(F)(F)F)N1CC(c2ccc(F)cc2)C1 [Example 1, 4,4,4-trifluoro-1-[3-(4-fluorophenyl)azetidin-1-yl]butan-1-one] | – | > 7.30 | > 7.30 |
| O=C(CCC(F)(F)F)N1CC(c2cccc(F)c2)C1 [Example 29, 4,4,4-trifluoro-1-[3-(3-fluorophenyl)azetidin-1-yl]butan-1-one] | – | > 7.30 | > 7.30 |
| O=C(CCC(F)(F)F)N1CC(c2ccc(C(F)(F)F)nc2)C1 [Example 21, 4,4,4-trifluoro-1-[3-[6-(trifluoromethyl)-3-pyridyl]azetidin-1-yl]butan-1-one] | – | 5.00 to 6.00 | 6.30 to 6.60 |
| O=C(CCC(F)(F)F)N1CC(c2ccnc(C(F)(F)F)c2)C1 [Example 12, 4,4,4-trifluoro-1-[3-[2-(trifluoromethyl)-4-pyridyl]azetidin-1-yl]butan-1-one] | – | 6.30 to 6.60 | 6.60 to 7.30 |
| Cc1cc(F)ccc1C1CN(C(=O)CCC(F)(F)F)C1 [Example 28, 4,4,4-trifluoro-1-[3-(4-fluoro-2-methyl-phenyl)azetidin-1-yl]butan-1-one] | – | 6.60 to 7.30 | 6.60 to 7.30 |
| O=C(CCC(F)(F)F)N1CC(C2CCOCC2)C1 [Example 38, 4,4,4-trifluoro-1-(3-(tetrahydro-2H-pyran-4-yl)azetidin-1-yl)butan-1-one] | – | 6.30 to 6.60 | 6.60 to 7.30 |
| O=C(CCC(F)(F)F)N1CC(c2cccc(OC(F)(F)F)c2)C1 [Example 15, 4,4,4-trifluoro-1-[3-[3-(trifluoromethoxy)phenyl]azetidin-1-yl]butan-1-one] | – | > 7.30 | > 7.30 |
| O=C(CCC(F)(F)F)N1CC(C2CC2)C1 [Example 4, 1-(3-cyclopropylazetidin-1-yl)-4,4,4-trifluoro-butan-1-one] | – | 6.30 to 6.60 | 6.60 to 7.30 |
| O=C(CCC(F)(F)F)N1CC(c2ccc(F)nc2)C1 [Example 33, 4,4,4-trifluoro-1-[3-(6-fluoro-3-pyridyl)azetidin-1-yl]butan-1-one] | 6.00 to 6.30 | – | – |
| O=C(CCC(F)(F)F)N1CC(C2CCCCC2)C1 [Example 6, 1-(3-cyclohexylazetidin-1-yl)-4,4,4-trifluoro-butan-1-one] | > 7.30 | – | – |
| O=C(CCC(F)(F)F)N1CC(c2cncc(Cl)c2)C1 [Example 23, 1-[3-(5-chloro-3-pyridyl)azetidin-1-yl]-4,4,4-trifluoro-butan-1-one] | – | 6.30 to 6.60 | > 7.30 |
| O=C(CCC(F)(F)F)N1CC(c2cc(C(F)(F)F)ccn2)C1 [Example 7, 4,4,4-trifluoro-1-[3-[4-(trifluoromethyl)-2-pyridyl]azetidin-1-yl]butan-1-one] | – | 6.60 to 7.30 | 6.60 to 7.30 |
| CC1(c2ccc(F)cc2)CN(C(=O)CCC(F)(F)F)C1 [Example 42, 4,4,4-trifluoro-1-(3-(4-fluorophenyl)-3-methylazetidin-1-yl)butan-1-one] | – | > 7.30 | > 7.30 |
| O=C(CCC(F)(F)F)N1CC(c2ccncc2)C1 [Example 30, 4,4,4-trifluoro-1-[3-(4-pyridyl)azetidin-1-yl]butan-1-one] | 5.00 to 6.00 | – | – |
| O=C(CCC(F)(F)F)N1CC(c2cccc(C(F)(F)F)c2)C1 [Example 2, 4,4,4-trifluoro-1-[3-[3-(trifluoromethyl)phenyl]azetidin-1-yl]butan-1-one] | – | > 7.30 | > 7.30 |
| O=C(CCC(F)(F)F)N1CC(c2ccc(F)cn2)C1 [Example 9, 4,4,4-trifluoro-1-[3-(5-fluoro-2-pyridyl)azetidin-1-yl]butan-1-one] | – | 6.60 to 7.30 | 6.60 to 7.30 |
| O=C(CCC(F)(F)F)N1CC(c2ccc(Cl)nc2)C1 [Example 19] | – | 6.30 to 6.60 | 6.60 to 7.30 |
| O=C(CCCC(F)(F)F)N1CC(c2ccc(F)cc2)C1 [Example 3, 5,5,5-trifluoro-1-[3-(4-fluorophenyl)azetidin-1-yl]pentan-1-one] | – | > 7.30 | 6.60 to 7.30 |
| N#Cc1ccc(C2CN(C(=O)CCC(F)(F)F)C2)cc1 [Example 43, 4-(1-(4,4,4-trifluorobutanoyl)azetidin-3-yl)benzonitrile] | 5.00 to 6.00 | – | – |
| O=C(CCC(F)(F)F)N1CC(c2ccnc(Cl)c2)C1 [Example 32, 1-[3-(2-chloro-4-pyridyl)azetidin-1-yl]-4,4,4-trifluoro-butan-1-one] | 6.30 to 6.60 | – | – |
| O=C(CCC(F)(F)F)N1CC(c2ccc(F)c(F)c2)C1 [Example 27, 1-[3-(3,4-difluorophenyl)azetidin-1-yl]-4,4,4-trifluoro-butan-1-one] | > 7.30 | – | – |
